# Measured values as given in patent publication US10357460B2, “Particulate comprising a calcium-containing compound and a sugar alcohol” (Takeda Nycomed AS, priority 2004, dated 2019).
# Tests used:
# [1] = Compactability of sugar alcohols compressed alone; assay type: physicochemical; settings: tablets of sugar alcohol alone; FIG. 19
# Experimental: Tablets comprising sorbitol 110 μm, sorbitol 38 μm, isomalt 27 μm, maltitol, mannitol or xylitol were compressed on an instrumented Fette Exacta 1/F single punch tablet press, only maximum compression force on the upper punch was recorded.
# Before the compression of each tablet the punch tips and the die bore were lubricated with a 5% suspension of magnesium stearate in acetone. The acetone was allowed to evaporate before compression of the tablet.
# The sugar alcohol was weighed, transferred to the die bore and then compressed, see Table 14. Immediately after ejection the tablet was tested for crushing strength.
# [2] = Crushing strength versus tablet compression force, calcium carbonate/sugar alcohol tablets (Example 11); settings: for tendency of capping: observed during the experiment
# Excerpt: In all the below described experiments 1-24 the amount of calcium salt is 76.22% w/w of the final tablet mass, the amount of sugar alcohol is 23.78% w/w, with the exception of experiments 4 and 20 at which the 23.78% w/w of sugar alcohol is replaced with 14.63% w/w of sugar alcohol and 9.15% w/w of Precirol.
# The calcium salt and the sugar alcohol are mixed in a total amount of 6 kg in a Fielder high shear mixer. The sugar alcohol is sieved through sieve size 300 μm prior to mixing. The mixing of 6 kg is done twice and the total yield of 12 kg is mixed in a planetary mixer. Thereafter, the mixtures are roller compacted (intra granular sugar alcohol) using the following values for GW, F, RS and screen size. (For the experiments 25-26 the sugar alcohol is admixed by hand after roller compaction has been carried out (extra granular sugar alcohol)).
# The compactate is admixed with 0.34% w/w of magnesium stearate.
# Compression is carried out on a Fette 1090 using a 18.9 mm×9.4 mm capsule shaped punch design and a theoretical tablet mass of 1683 mg. […] The crushing strength has been measured by use of a Schleuniger Autotest 4 and n=20.
# [3] = Tablet hardness as a function of compression pressure (Schleuniger AT4); assay type: physicochemical
# Excerpt: Sorbitol was lump breaked in a Cone Mill (Quadro U20) and afterwards premixed with Calcium Carbonate in a high-shear mixer (Diosna P250 at low impeller speed and no chopper) for 60 sec.
# The premix was granulated on a roller compactor (Gerteis 3W-Polygran), and the compacted granules was then mixed with Povidone K30, Aspartame, D3 Vitamin and Flavour in a high-shear mixer (Diosna P250 at low impeller speed and no chopper) for 60 sec. Finally, lubrication with Magnesium Stearate was done a high-shear mixer (Diosna P250 at low impeller speed and no chopper) for 25 sec.
# The roller compaction was based on a setup with knurled rollers and control. The key set up parameters are: Gap Width (GW), Force (F), Roller Speed (RS) and screen size.
# Tablet weight was approximately 1,750 mg. All in-process weight and hardness data are obtained using a Schleuniger AT4.
# pre-menopausal women = settings: 1200 mg of calcium supplements daily, three menstrual cycles; placebo 48%; cited from earlier work
# treated patients = settings: annual injections of 150.000-300.000 IU; cited from earlier work
Compound,compactability (slope of compression force versus crushing strength) [1],tendency of capping [2],further results
"OC[C@@H](O)[C@@H](O[C@H]1O[C@H](CO)[C@@H](O)[C@H](O)[C@H]1O)[C@H](O)[C@@H](O)CO [maltitol, Maltitol]",very poor compactability,tendency of capping,"binding properties (tablet hardness) ([3]; maltitol versus sorbitol 38 μm as binder, capsule shaped 9.4 mm*18.9 mm, FIG. 7): does not impart as good binding properties"
Glycerol distearat Type I EP [Precirol],,,"crushing strength ([2]; addition of Precirol to xylitol 34 μm, FIG. 11): increases the crushing strength"
[Ca] [calcium],,,women with PMS related symptoms (pre-menopausal women): 30%
Isomalt,Sorbitol is followed by isomalt,,
vitamin D,,,overall fracture rate (treated patients): significant reduction; rate of hip fracture (treated patients): not in the rate of hip fracture

# Further lines, with some results ahead:
compactability (slope of compression force versus crushing strength) [1],tendency of capping [2],Compound,further results
very poor compactability,tendency of capping,"OC[C@@H](O)[C@@H](O)[C@H](O)[C@H](O)CO [mannitol, Mannitol]",
best compactability,,"OC[C@@H](O)[C@@H](O)[C@H](O)[C@@H](O)CO [sorbitol, Sorbitol]","tablet hardness ([3]; decreasing size of sorbitol (110, 38, 11 μm), fixed compression force, 14 mm round tablets, FIG. 4): markedly increased tablet hardness; tablet hardness ([3]; presence of sorbitol compared to tablets consisting solely of calcium carbonate, FIG. 1): increased tablet hardness values"
very poor compactability,tendency of capping,"OC[C@@H](O)[C@H](O)[C@@H](O)CO [xylitol, Xylitol]",
